Source: the kinase profiling compilation of Christmann-Franck et al. (2016)

Tests used:
Assay in all cases: KINOMEscan competition binding
Settings in all cases: compound 10.0 µM
[1] = test system: ABL1 (human), P00519 [E255K]
ERN1 (human) = ERN1 (human) (UniProt O75460)
DDR1 (human) = DDR1 (human) (UniProt Q08345)
DYRK1A (human) = DYRK1A (human) (UniProt Q13627)
BTK (human) = BTK (human) (UniProt Q06187)
NEK3 (human) = NEK3 (human) (UniProt P51956)
CDK13 (human) = CDK13 (human) (UniProt Q14004)
CDK4 CCND1 (human) = CDK4 CCND1 (human) (UniProt P11802+P24385)
SIK3 (human) = SIK3 (human) (UniProt Q9Y2K2)
MATK (human) = MATK (human) (UniProt P42679)
MAP3K2 (human) = MAP3K2 (human) (UniProt Q9Y2U5)
[2] = test system: FLT3 (human), P36888 [K663Q]
NEK4 (human) = NEK4 (human) (UniProt P51957)
PKN3 (M.tuberculosis) = PKN3 (M.tuberculosis) (UniProt Q6P5Z2)
BRAF (human) = BRAF (human) (UniProt P15056)
PRKCI (human) = PRKCI (human) (UniProt P41743)
MTOR (human) = MTOR (human) (UniProt P42345)
DYRK2 (human) = DYRK2 (human) (UniProt Q92630)
CDKL1 (human) = CDKL1 (human) (UniProt Q00532)
PIP4K2C (human) = PIP4K2C (human) (UniProt Q8TBX8)
EPHB6 (human) = EPHB6 (human) (UniProt O15197)
[3] = test system: PIK3CA (human), P42336 [E545A]
ROCK1 (human) = ROCK1 (human) (UniProt Q13464)
ICK (human) = ICK (human) (UniProt Q9UPZ9)
TRPM6 (human) = TRPM6 (human) (UniProt Q9BX84)
[4] = test system: PIK3CA (human), P42336 [C420R]
LRRK2 (human) = LRRK2 (human) (UniProt Q5S007)
MYLK3 (human) = MYLK3 (human) (UniProt Q32MK0)
TBK1 (human) = TBK1 (human) (UniProt Q9UHD2)
HIPK4 (human) = HIPK4 (human) (UniProt Q8NE63)
MAP3K6 (human) = MAP3K6 (human) (UniProt O95382)
PI4KB (human) = PI4KB (human) (UniProt Q9UBF8)
PIK3CG (human) = PIK3CG (human) (UniProt P48736)
CDK4 CCND3 (human) = CDK4 CCND3 (human) (UniProt P11802+P30281)
MAP2K7 (human) = MAP2K7 (human) (UniProt O14733)
MET (human) = MET (human) (UniProt P08581)
NIM1 (human) = NIM1 (human) (UniProt Q8IY84)
KIT (human) = KIT (human) (UniProt P10721)
[5] = test system: EGFR (human), P00533 [746-750 del]
[6] = test system: EGFR (human), P00533 [G719S]

Sequence of ROCK1 (human) (Q13464 whole entry, looked up): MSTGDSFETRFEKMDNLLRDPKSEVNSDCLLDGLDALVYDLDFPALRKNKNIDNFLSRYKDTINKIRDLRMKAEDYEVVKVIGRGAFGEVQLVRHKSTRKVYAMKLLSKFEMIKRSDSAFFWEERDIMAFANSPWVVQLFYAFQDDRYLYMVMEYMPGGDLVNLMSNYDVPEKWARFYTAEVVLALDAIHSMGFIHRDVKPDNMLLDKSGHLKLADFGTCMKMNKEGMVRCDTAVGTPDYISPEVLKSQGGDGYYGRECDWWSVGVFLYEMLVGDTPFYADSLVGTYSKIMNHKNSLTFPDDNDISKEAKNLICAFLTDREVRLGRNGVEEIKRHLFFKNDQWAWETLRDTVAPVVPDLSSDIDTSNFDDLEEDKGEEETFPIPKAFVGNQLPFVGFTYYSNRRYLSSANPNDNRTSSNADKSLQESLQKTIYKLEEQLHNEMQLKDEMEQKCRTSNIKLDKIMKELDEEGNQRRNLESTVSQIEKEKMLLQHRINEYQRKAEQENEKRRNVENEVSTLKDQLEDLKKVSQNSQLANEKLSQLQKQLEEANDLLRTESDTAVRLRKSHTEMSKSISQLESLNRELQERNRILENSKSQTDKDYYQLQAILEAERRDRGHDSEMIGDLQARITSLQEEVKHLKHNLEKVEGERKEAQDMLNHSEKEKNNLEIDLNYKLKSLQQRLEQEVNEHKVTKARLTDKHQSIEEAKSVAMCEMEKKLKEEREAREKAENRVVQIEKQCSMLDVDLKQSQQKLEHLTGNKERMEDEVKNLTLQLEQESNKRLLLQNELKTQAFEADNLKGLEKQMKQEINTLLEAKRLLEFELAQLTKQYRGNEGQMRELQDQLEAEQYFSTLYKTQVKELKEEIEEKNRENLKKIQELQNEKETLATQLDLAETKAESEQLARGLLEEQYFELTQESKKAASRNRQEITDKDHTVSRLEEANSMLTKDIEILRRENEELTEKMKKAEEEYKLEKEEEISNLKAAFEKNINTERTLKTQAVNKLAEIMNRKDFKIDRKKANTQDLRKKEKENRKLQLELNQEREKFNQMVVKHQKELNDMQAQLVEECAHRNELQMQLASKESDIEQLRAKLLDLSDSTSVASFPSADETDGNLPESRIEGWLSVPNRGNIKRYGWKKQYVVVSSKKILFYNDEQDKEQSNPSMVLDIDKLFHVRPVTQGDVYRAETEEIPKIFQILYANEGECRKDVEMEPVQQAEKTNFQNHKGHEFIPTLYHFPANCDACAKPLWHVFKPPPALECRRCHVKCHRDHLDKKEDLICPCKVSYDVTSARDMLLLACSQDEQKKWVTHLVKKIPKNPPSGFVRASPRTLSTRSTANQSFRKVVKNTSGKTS
Sequence of ICK (human) (Q9UPZ9 whole entry, looked up): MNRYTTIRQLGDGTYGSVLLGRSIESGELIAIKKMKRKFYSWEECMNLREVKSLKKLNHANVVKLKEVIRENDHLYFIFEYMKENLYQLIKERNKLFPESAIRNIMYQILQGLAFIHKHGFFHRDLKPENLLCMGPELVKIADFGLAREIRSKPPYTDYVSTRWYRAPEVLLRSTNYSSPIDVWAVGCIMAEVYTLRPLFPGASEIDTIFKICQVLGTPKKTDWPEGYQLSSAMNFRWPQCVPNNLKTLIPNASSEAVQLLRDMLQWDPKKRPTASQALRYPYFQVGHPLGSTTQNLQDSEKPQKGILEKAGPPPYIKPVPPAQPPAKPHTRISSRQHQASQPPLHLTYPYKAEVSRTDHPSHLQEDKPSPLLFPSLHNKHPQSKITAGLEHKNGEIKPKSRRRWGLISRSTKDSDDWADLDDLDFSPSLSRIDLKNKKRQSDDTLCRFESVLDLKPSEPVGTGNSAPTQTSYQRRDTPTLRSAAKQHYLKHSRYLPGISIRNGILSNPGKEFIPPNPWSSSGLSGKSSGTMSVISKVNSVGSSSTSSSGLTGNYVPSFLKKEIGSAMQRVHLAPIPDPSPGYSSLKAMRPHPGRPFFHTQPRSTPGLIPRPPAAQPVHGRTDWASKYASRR
Sequence of BRAF (human) (P15056 whole entry, looked up): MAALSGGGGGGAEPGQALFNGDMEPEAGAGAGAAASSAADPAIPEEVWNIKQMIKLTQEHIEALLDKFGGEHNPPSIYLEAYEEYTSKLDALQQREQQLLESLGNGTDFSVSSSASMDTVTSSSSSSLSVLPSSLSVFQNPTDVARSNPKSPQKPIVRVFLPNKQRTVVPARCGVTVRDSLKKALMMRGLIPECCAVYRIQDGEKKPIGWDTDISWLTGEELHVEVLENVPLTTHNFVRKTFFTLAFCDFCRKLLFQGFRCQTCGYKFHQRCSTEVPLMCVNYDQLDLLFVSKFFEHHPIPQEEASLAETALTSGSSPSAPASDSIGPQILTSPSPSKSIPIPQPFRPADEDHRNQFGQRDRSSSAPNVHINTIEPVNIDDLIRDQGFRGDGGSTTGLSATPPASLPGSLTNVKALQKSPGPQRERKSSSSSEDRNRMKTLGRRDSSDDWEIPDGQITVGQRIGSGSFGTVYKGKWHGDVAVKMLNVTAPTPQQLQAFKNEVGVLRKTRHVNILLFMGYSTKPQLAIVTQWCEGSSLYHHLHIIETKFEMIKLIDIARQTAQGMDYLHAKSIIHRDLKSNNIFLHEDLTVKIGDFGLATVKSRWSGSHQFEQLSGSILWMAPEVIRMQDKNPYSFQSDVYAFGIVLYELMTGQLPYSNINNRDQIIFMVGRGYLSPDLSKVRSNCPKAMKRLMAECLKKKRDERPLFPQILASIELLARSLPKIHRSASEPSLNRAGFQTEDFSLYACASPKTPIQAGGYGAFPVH
Sequence of CDKL1 (human) (Q00532 whole entry, looked up): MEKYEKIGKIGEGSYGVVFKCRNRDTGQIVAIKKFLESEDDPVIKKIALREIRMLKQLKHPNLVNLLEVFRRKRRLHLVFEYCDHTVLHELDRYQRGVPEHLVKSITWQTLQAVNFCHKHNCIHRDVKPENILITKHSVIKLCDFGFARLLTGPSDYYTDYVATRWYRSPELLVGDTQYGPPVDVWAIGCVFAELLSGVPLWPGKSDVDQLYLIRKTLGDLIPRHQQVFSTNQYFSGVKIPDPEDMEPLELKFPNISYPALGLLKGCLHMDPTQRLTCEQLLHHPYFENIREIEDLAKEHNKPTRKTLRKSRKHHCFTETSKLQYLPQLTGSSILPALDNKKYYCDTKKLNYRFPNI
Sequence of CDK13 (human) (Q14004 whole entry, looked up): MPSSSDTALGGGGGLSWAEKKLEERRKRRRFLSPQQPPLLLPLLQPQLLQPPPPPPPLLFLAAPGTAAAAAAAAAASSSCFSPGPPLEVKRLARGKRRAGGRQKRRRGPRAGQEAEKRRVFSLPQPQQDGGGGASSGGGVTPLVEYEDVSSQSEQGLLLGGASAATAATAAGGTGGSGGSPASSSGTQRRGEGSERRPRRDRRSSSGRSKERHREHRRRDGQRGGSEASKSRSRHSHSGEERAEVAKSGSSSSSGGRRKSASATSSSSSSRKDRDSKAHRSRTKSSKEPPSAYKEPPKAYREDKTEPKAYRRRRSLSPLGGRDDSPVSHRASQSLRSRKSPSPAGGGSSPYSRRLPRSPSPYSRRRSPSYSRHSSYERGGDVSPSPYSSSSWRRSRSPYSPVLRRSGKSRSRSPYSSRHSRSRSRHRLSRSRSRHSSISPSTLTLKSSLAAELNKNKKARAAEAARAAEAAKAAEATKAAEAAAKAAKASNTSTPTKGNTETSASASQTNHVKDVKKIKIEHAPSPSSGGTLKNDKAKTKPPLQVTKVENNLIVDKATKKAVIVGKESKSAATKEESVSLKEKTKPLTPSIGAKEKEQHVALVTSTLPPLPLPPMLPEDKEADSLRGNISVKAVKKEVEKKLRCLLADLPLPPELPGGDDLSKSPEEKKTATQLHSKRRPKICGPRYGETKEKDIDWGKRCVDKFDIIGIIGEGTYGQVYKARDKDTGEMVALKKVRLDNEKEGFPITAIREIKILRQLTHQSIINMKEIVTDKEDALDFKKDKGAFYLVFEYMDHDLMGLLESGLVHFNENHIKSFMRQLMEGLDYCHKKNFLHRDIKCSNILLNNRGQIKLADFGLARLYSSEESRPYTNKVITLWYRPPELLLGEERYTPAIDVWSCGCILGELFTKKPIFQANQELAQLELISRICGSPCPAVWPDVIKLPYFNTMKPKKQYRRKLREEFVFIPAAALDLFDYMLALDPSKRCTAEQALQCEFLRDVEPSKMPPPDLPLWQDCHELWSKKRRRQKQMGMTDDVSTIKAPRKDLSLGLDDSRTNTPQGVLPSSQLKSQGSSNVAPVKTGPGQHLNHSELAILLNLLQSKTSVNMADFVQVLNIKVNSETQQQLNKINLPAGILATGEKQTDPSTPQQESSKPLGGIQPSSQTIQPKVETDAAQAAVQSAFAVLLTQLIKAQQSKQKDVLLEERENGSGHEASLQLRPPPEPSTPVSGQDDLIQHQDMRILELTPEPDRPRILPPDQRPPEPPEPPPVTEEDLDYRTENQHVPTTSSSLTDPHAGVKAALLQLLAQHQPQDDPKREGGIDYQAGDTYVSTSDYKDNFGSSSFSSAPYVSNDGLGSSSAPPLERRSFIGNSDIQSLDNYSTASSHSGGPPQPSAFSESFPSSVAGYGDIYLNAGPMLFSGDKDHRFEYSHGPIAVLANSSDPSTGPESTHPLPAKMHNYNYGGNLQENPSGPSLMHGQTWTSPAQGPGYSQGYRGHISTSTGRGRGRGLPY
Sequence of MAP2K7 (human) (O14733 whole entry, looked up): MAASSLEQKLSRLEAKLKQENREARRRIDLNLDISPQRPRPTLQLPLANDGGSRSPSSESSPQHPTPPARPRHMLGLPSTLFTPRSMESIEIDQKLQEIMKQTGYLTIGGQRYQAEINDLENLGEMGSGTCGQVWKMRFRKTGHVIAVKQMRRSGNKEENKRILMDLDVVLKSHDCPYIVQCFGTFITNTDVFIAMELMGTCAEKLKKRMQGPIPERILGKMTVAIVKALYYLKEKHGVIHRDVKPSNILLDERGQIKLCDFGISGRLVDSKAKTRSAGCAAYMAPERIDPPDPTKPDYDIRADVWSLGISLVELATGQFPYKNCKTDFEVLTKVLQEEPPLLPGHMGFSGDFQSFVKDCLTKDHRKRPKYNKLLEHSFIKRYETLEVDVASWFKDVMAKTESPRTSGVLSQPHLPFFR

SMILES | kinase still bound, per cent of control [1] | kinase still bound, per cent of control (ERN1 (human)) | kinase still bound, per cent of control (DDR1 (human)) | kinase still bound, per cent of control (DYRK1A (human)) | kinase still bound, per cent of control (BTK (human)) | kinase still bound, per cent of control (NEK3 (human)) | kinase still bound, per cent of control (CDK13 (human)) | kinase still bound, per cent of control (CDK4 CCND1 (human)) | kinase still bound, per cent of control (SIK3 (human)) | kinase still bound, per cent of control (MATK (human)) | kinase still bound, per cent of control (MAP3K2 (human)) | kinase still bound, per cent of control [2] | kinase still bound, per cent of control (NEK4 (human)) | kinase still bound, per cent of control (PKN3 (M.tuberculosis)) | kinase still bound, per cent of control (BRAF (human)) | kinase still bound, per cent of control (PRKCI (human)) | kinase still bound, per cent of control (MTOR (human)) | kinase still bound, per cent of control (DYRK2 (human)) | kinase still bound, per cent of control (CDKL1 (human)) | kinase still bound, per cent of control (PIP4K2C (human)) | further results
N#Cc1c(NC(=O)c2cccc3ccccc23)sc2c1CCCC2 | 100% | 90% | 71% | 100% | 90% | 100% | 87% | 100% | 65% | 100% | 100% | 93% | 76% | 100% | 100% | 63% | 100% | 100% | 73% | 100% | kinase still bound, per cent of control (EPHB6 (human)): 85%; kinase still bound, per cent of control [3]: 80%; kinase still bound, per cent of control (ROCK1 (human)): 100%; kinase still bound, per cent of control (ICK (human)): 81%; kinase still bound, per cent of control (TRPM6 (human)): 100%; kinase still bound, per cent of control [4]: 92%; kinase still bound, per cent of control (LRRK2 (human)): 94%; kinase still bound, per cent of control (MYLK3 (human)): 100%; kinase still bound, per cent of control (TBK1 (human)): 88%; kinase still bound, per cent of control (HIPK4 (human)): 100%; kinase still bound, per cent of control (MAP3K6 (human)): 93%; kinase still bound, per cent of control (PI4KB (human)): 100%; kinase still bound, per cent of control (PIK3CG (human)): 99%; kinase still bound, per cent of control (CDK4 CCND3 (human)): 84%; kinase still bound, per cent of control (MAP2K7 (human)): 100%; kinase still bound, per cent of control (MET (human)): 66%; kinase still bound, per cent of control (NIM1 (human)): 100%
Cc1ccc(NC(=O)c2cccc(C(C)(C)C#N)c2)cc1Nc1ccc2ncn(C)c(=O)c2c1 | 3.4% | 86% | 0% | 79% | 66% | 57% | 100% | 61% | 100% | 100% | 88% | 22% | 89% | 100% | 0% | 100% | 100% | 100% | 100% | 100% | kinase still bound, per cent of control (KIT (human)): 0%; kinase still bound, per cent of control (EPHB6 (human)): 2.4%; kinase still bound, per cent of control [3]: 89%; kinase still bound, per cent of control (ROCK1 (human)): 92%; kinase still bound, per cent of control (ICK (human)): 100%; kinase still bound, per cent of control [5]: 15%; kinase still bound, per cent of control (TRPM6 (human)): 100%; kinase still bound, per cent of control [4]: 100%; kinase still bound, per cent of control (LRRK2 (human)): 32%; kinase still bound, per cent of control (MYLK3 (human)): 100%; kinase still bound, per cent of control (TBK1 (human)): 100%; kinase still bound, per cent of control (HIPK4 (human)): 92%; kinase still bound, per cent of control [6]: 37%; kinase still bound, per cent of control (MAP3K6 (human)): 100%; kinase still bound, per cent of control (PI4KB (human)): 82%; kinase still bound, per cent of control (PIK3CG (human)): 99%; kinase still bound, per cent of control (CDK4 CCND3 (human)): 90%; kinase still bound, per cent of control (MAP2K7 (human)): 93%; kinase still bound, per cent of control (MET (human)): 89%; kinase still bound, per cent of control (NIM1 (human)): 100%
O=C1Nc2ccc(I)cc2/C1=C/c1cc(Br)c(O)c(Br)c1 | 54% | 57% | 85% | 26% | 99% | 95% | 100% | 65% | 100% | 100% | 100% | 11% | 93% | 64% | 0.9% | 100% | 95% | 54% | 84% | 100% | kinase still bound, per cent of control (KIT (human)): 3.4%; kinase still bound, per cent of control (EPHB6 (human)): 24%; kinase still bound, per cent of control [3]: 86%; kinase still bound, per cent of control (ROCK1 (human)): 80%; kinase still bound, per cent of control (ICK (human)): 88%; kinase still bound, per cent of control [5]: 36%; kinase still bound, per cent of control (TRPM6 (human)): 100%; kinase still bound, per cent of control [4]: 100%; kinase still bound, per cent of control (LRRK2 (human)): 11%; kinase still bound, per cent of control (MYLK3 (human)): 10%; kinase still bound, per cent of control (TBK1 (human)): 95%; kinase still bound, per cent of control (HIPK4 (human)): 21%; kinase still bound, per cent of control [6]: 84%; kinase still bound, per cent of control (MAP3K6 (human)): 100%; kinase still bound, per cent of control (PI4KB (human)): 0.5%; kinase still bound, per cent of control (PIK3CG (human)): 71%; kinase still bound, per cent of control (CDK4 CCND3 (human)): 99%; kinase still bound, per cent of control (MAP2K7 (human)): 98%; kinase still bound, per cent of control (MET (human)): 100%; kinase still bound, per cent of control (NIM1 (human)): 100%
